Assay results as given in patent publication US20260201006A1, “COACERVATE FORMULATIONS OF CXCR-ACTIVATING PEPTIDES FOR CONTROLLED RELEASE IN OPHTHALMIC AND TOPICAL TREATMENTS” (University of Pittsburgh - Of the Commonwealth System of …, priority 2022, published 2026).
Ends that are not written are not given here.

Columns and labels:
MUC5AC transcripts = test: Goblet cell study: qRT-PCR for MUC5AC transcripts in HCjE cells; type: cell-based, human; conditions: 200 ng/ml or 2000 ng/ml, relative to vehicle only
Experimental: (§1) HCjE cells were maintained in complete keratinocyte serum free medium (KSFM; Invitrogen, Carlsbad, CA) in petri dishes coated with type 1 collagen. When the HCjE cells reached 50% confluence, the culture medium was replaced with growth medium (1:1 DMEM/F12:complete KSFM). When cells reached 100% confluence, the cells were fed with stratification medium (DMEM/F12+10% FBS) with or without the CXCL10p peptide (either 200 ng/ml or 2000 ng/ml). Control cells were fed with the medium supplemented with an equivalent volume of the vehicle (PBS) in which the peptide was dissolved. This medium with or without peptide was replaced every other day for 14 days, after which the cells were either stained with periodic acid-Schiff's (PAS) reagent following the standard protocol, or subjected to total RNA isolation, and qRT-PCR for MUC5AC transcripts with TATA-box binding protein (TBP) as the endogenous control.
Control and CXCR3 activating peptide-treated HCjE cells are also examined for expression of MUC5AC transcripts by qRT-PCR.

[1] = test system: environmental dry eye model; test: Schirmer tear test (STT) in rabbit environmental dry eye model; type: in vivo, New Zealand white rabbits; conditions: rabbits, 21 days treatment
Experimental: The 22-mer CXCL10p peptide (OH-[…]-NH2; SEQ ID NO: 5) was manufactured by PolyPeptide Inc. (San Diego, CA, USA) and purified to >95% purity as a lyophilized powder. The peptide was delivered in three different formulations. For subconjunctival injection, 3 μg of the peptide was dissolved in 100 μl of sterile PBS for weekly injections. For eye drops, 10 μg of the peptide was dissolved in 50 μl of sterile PBS for twice daily drops (BID). For the slow-release formulation, 10 μg of the peptide was dissolved in 50 μl of coacervate for BID inoculation. The control was 50 μl of sterile PBS applied BID. The coacervate is a heparin and PEAD (1:3.6) mixture with each component at a 10 mg/mL concentration in water. The CXCL10p peptide was added at a 1:10 dilution in PBS to the final concentration.
The environmental dry eye model was used to test the CXCL10p peptide. Female New Zealand white rabbits (8 per group) were used at 125-175 days old (weighing 3-5 kg) at the time of induction. For induction of dry eye, all animals were dosed with atropine sulfate (1%) in both eyes (OU) twice daily (BID) for 2-3 weeks prior to test article administration to induce KCS. In addition, humidity in the animals' housing room was maintained at ~20% throughout the study to promote eye dryness. Non-responder animals were removed from the study at the end of the induction phase. […]

[2] = test system: TNFα mRNA in human conjunctival epithelial (HCjE) cells; test: TNFα-mediated inflammation in HCjE cells (qRT-PCR); type: cell-based
Experimental: Primary human conjunctival epithelial (HCjE) cells were seeded at 40,000 cells per well in a 96 well flat bottom plate. After overnight adhesion in Keratinocyte-Serum Free Media (cK-SFM), the cells were washed and exposed to starvation media (SFM) for a further 24 hours. At this time the cells were exposed to TNFα (5 ng/ml) in the presence or absence of CXCL10p peptide (200 ng/ml). After 4 hours, the cells were harvested and tested for TNFα mRNA levels with GAPDH mRNA as the control for equalization.

HCjE cells = test: Goblet cell study: PAS staining of stratified HCjE cells; type: cell-based, human; conditions: 200 ng/ml or 2000 ng/ml, compared to vehicle-treated HCjE cells
Experimental: as §1
To further examine the effects of the CXCR3 activating peptide on goblet cell functioning in vitro, stratified HCjE cells are treated with 200 ng/ml CXCR3 activating peptide, 2000 ng/ml CXCR3 activating peptide, or vehicle. Cells are then stained with periodic acid-Schiff's (PAS) reagent.

Q: For “OH-PESKAIKNLLKAVHKEMSKRSP-NH2 [CXCL10p peptide]”, which “levels of MUC5AC transcripts” value (MUC5AC transcripts) is on record?
A: increased levels of MUC5AC transcripts

Q: What about the “amount of aqueous tear (STT)” value [1] of the same substance?
A: uncorrected

Q: And the “reduction of TNFα mRNA levels” value ([2]; HCjE cells, TNFα 5 ng/ml, peptide 200 ng/ml, 4 hours)?
A: approximately one quarter

Q: What about the “TNFα mRNA levels” value ([2]; HCjE challenged with TNFα, concurrent exposure to peptide) of the same substance?
A: dampened the TNFα mRNA levels in a reproducible and statistically significant manner

Q: What about the “frequency of intense magenta stained cell clusters (goblet cell clusters)” value (HCjE cells) of the same substance?
A: increase in the frequency

Q: And the “staining with PAS reagent (proteoglycan content)” value (HCjE cells)?
A: more intense staining with PAS reagent
